Assays:
Assay type in all cases: cell-based
[1] = target: T1, pEGFR, A431 cells (wildtype EGFR) (Homo sapiens, UniProt P00533); test: Cellular EGFR phosphorylation assay (LANCE Ultra TR-FRET) in A431 cells; settings: 4 hours at 37° C., 40 ng/mL EGF for the final 10 minutes, read-out: A431 pEGFR IC50
T1 construct: pEGFR (Tyr1068) TR-FRET
How it was run: (§1)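 Cells were treated with compound for 4 h at 37 °C as a 9-point, 3-fold titration; A431 cells were stimulated with 40 ng/mL EGF for the final 10 min. Phospho-EGFR (Tyr1068) in lysates was read by TR-FRET after 4-6 h antibody incubation, and IC50 values were fitted.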

PC-9 cells = test: 5-Day CellTiter Glo (CTG) cell proliferation assay, PC-9; settings: Homo sapiens; PC-9 cells (d746-750 EGFR), 5-day CTG proliferation, 120 hours; read-out: PC-9 IC50
How it was run: (§2)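 Luminescent ATP signal (CellTiter-Glo 2.0) after 120 hours of compound exposure gave IC50 values. PC-9 and HCC827 harbour EGFR d746-750; NCI-H1975 harbours L858R/T790M.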

[2] = target: T2, pEGFR, NCI-H1975 cells (L858R/T790M EGFR) (Homo sapiens, UniProt P00533, L858R/T790M); test: Cellular EGFR phosphorylation assay (LANCE Ultra TR-FRET) in NCI-H1975 cells; settings: 4 hours at 37° C., read-out: H1975 pEGFR IC50
T2 construct: pEGFR (Tyr1068) TR-FRET
T2 sequence (P00533 25-1210 T790M/L858R): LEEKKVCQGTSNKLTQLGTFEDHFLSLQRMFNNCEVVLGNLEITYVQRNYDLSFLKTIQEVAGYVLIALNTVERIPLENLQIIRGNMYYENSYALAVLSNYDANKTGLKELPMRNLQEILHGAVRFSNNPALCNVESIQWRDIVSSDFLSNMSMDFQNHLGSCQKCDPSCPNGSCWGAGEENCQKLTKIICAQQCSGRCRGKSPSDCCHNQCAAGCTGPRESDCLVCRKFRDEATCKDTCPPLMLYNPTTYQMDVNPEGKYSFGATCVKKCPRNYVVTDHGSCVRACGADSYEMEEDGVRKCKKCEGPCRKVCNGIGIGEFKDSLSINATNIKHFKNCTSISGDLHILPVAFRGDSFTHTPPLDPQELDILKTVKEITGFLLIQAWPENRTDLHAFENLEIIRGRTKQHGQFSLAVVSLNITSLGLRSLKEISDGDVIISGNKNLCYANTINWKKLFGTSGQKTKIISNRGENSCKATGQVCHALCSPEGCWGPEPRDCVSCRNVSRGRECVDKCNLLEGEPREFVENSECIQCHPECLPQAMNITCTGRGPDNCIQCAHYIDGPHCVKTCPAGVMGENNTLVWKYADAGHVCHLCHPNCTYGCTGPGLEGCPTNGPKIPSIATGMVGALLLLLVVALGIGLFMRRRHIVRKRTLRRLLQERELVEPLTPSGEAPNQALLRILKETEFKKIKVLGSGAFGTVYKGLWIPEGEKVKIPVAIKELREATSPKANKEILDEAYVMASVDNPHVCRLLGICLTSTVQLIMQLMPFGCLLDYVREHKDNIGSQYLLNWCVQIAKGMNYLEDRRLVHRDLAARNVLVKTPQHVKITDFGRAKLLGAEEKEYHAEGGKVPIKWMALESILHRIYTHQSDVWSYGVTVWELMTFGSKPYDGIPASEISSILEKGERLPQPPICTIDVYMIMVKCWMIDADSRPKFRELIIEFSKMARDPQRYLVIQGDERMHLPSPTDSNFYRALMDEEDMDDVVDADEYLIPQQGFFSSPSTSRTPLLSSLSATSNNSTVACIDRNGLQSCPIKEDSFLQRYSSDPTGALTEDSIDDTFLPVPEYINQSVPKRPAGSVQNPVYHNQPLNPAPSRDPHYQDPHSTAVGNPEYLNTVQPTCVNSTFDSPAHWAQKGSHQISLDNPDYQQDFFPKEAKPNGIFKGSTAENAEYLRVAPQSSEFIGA
How it was run: as §1

NCI-H1975 cells = test: 5-Day CellTiter Glo (CTG) cell proliferation assay, NCI-H1975; settings: Homo sapiens; NCI-H1975 cells (L858R/T790M EGFR), 5-day CTG proliferation, 120 hours; read-out: H1975 IC50
How it was run: as §2

[3] = test system: BaF3 cells with engineered EGFR d746-750/T790M; test: 3-Day CellTiter Glo (CTG) cell proliferation assay, BaF3 EGFR d746-750/T790M; settings: Mus musculus; BaF3 EGFR d746-750/T790M cells, 3-day CTG proliferation, 72 hours
Description: (§3) 3-DAY CellTiter Glo (CTG) Cell Proliferation Assays (BaF3 Cell Lines)
(§4) Cell proliferation assays were carried out in BaF3 cells engineered with EGFR mutations. BaF3 cells with engineered EGFR L858R/T790M/C797S, EGFR L858R/C797S, or EGFR d746-750/T790M transgene, one thousand cells/50 μL per well were seeded in white 384-well plate, followed by treatment with indicated compounds in a 9-dose dilution series using TECAN d300e liquid dispenser. Cells were incubated with compounds for 72 hours at 37° C. and 5% CO2. Cell proliferation was measured using CellTiter-Gbo 2.0 luciferase-based ATP detection assay (Promega, Madison, WI) at 18 μL per well following the manufacturer's protocol. Plates were then read on a TECAN Sparks multimode microplate reader. Data was analyzed using GraphPad Prism 9 (GraphiPad Software, San Diego, CA) to obtain IC50 values.

[4] = test system: BaF3 cells with engineered EGFR L858R/C797S; test: 3-Day CellTiter Glo (CTG) cell proliferation assay, BaF3 EGFR L858R/C797S; settings: Mus musculus, 3-day CTG proliferation, 72 hours
Description: as §3, §4

[5] = target: T3, pEGFR, PC-9 cells (d746-750 EGFR) (Homo sapiens, UniProt P00533, DEL746-750); test: Cellular EGFR phosphorylation assay (LANCE Ultra TR-FRET) in PC-9 cells; settings: 4 hours at 37° C., read-out: PC-9 pEGFR IC50
T3 construct: pEGFR (Tyr1068) TR-FRET
T3 sequence (P00533 with tags, fused parts or gaps DEL746-750): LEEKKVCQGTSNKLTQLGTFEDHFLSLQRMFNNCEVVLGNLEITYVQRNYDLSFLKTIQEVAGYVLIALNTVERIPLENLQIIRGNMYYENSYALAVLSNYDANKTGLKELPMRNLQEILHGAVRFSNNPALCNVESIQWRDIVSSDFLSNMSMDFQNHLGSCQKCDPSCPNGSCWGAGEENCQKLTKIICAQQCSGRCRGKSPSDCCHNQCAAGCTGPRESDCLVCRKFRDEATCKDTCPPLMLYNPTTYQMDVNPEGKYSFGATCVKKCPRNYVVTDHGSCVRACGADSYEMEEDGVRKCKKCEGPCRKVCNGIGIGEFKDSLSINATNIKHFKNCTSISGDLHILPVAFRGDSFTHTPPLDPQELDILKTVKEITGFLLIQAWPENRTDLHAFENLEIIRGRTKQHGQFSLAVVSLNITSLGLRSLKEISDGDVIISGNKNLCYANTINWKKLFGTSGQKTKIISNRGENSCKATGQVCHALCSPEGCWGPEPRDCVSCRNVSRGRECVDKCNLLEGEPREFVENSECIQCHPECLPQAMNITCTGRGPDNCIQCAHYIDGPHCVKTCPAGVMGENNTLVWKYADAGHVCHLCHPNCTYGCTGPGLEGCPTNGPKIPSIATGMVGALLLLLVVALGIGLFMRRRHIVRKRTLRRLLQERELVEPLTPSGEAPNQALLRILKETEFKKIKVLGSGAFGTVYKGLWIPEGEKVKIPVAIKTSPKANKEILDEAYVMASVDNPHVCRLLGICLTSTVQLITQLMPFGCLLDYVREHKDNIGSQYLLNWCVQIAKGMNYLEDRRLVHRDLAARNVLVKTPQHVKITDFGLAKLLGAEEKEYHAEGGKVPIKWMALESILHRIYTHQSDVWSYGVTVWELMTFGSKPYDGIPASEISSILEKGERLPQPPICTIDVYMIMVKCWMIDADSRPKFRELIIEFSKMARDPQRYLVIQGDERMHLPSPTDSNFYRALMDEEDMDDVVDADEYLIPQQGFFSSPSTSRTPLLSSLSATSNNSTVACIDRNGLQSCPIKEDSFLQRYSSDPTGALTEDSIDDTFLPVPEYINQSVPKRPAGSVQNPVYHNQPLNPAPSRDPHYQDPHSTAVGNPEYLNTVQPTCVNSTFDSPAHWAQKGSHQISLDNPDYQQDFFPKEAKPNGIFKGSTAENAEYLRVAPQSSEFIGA
How it was run: as §1

HCC827 cells = test: 5-Day CellTiter Glo (CTG) cell proliferation assay, HCC827; settings: Homo sapiens; HCC827 cells (d746-750 EGFR), 5-day CTG proliferation, 120 hours; read-out: HCC827 IC50
How it was run: as §2

[6] = test system: BaF3 cells with engineered EGFR L858R/T790M/C797S; test: 3-Day CellTiter Glo (CTG) cell proliferation assay, BaF3 EGFR L858R/T790M/C797S; settings: Mus musculus, 3-day CTG proliferation, 72 hours
Description: as §3, §4

T1 sequence (P00533 25-1210): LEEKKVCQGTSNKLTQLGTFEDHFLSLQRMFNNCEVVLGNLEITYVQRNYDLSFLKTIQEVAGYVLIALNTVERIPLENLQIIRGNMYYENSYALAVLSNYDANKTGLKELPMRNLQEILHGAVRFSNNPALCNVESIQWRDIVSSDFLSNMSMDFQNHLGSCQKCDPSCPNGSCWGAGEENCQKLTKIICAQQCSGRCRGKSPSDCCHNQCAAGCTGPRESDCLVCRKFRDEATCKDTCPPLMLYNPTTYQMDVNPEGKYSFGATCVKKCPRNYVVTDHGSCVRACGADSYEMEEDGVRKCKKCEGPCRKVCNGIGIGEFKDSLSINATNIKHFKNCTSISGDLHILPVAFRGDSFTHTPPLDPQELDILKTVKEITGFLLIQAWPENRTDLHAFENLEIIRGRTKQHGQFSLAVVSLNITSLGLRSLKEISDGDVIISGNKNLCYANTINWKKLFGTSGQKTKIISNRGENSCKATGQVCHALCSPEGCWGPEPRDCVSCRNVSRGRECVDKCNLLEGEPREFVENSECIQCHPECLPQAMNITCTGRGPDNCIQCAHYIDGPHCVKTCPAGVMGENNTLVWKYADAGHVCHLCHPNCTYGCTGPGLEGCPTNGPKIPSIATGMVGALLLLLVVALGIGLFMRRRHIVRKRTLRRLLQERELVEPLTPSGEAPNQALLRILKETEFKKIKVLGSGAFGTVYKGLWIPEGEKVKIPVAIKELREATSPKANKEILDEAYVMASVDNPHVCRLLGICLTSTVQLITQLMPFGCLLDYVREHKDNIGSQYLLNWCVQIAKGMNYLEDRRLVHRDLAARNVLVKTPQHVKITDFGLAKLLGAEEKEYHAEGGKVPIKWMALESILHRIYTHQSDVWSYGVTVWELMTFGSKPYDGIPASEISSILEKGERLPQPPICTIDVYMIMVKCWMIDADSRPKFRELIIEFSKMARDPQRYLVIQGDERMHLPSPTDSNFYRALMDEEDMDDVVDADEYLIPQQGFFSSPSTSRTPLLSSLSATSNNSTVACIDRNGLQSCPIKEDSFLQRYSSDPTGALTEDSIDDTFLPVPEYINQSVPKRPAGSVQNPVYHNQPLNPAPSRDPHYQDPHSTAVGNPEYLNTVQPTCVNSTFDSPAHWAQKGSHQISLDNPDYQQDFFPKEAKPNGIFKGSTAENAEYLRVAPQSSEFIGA

| Structure (SMILES) | IC50 [1] [nM] | IC50 (PC-9 cells) [nM] | IC50 [2] [nM] | IC50 (NCI-H1975 cells) [nM] | IC50 [3] [nM] | IC50 [4] [nM] | IC50 [5] [nM] | IC50 (HCC827 cells) [nM] | IC50 [6] [nM] |
| --- | --- | --- | --- | --- | --- | --- | --- | --- | --- |
| CCOc1nn([C@H](C)CO)c2c1/C=C/c1n[nH]c3cnc(cc13)-c1c(C)nn(C)c1O[C@H](C)CN(C)C2 [Ex. 89, (2R)-2-[(10R,17E)-16-ethoxy-6,8,10,12-tetramethyl-2,8,10,11,12,13-hexahydro-14H-5,3-(azenometheno)tripyrazolo[3,4-f:3′,4′-j:4″,3″-n][1,4]oxazacyclopentadecin-14-yl]propan-1-ol] | 34.3 | 35.3 | 48.1 | 125 | 43.3 | 3.84 | 16.1 | 11 | 20.8 |
| CCN(C)c1nn([C@@H](C)CO)c2c1/C=C/c1n[nH]c3cnc(cc13)-c1c(C)nn(C)c1O[C@@H](C)CN(C)C2 [Ex. 105, (2S)-2-[(10S,17E)-16-[ethyl(methyl)amino]-6,8,10,12-tetramethyl-2,8,10,11,12,13-hexahydro-14H-5,3-(azenometheno)tripyrazolo[3,4-f:3′,4′-j:4″,3″-n][1,4]oxazacyclopentadecin-14-yl]propan-1-ol] | 365 | 209 | 274 | – | 700 | 15.5 | 319 | 52.1 | 147 |
| CCN(C)c1nn([C@@H](C)CO)c2c1/C=C/c1n[nH]c3c(C)nc(cc13)-c1c(C)nn(C)c1O[C@@H](C)CN(C)C2 [Ex. 102, (2S)-2-[(10S,17E)-16-[ethyl(methyl)amino]-6,8,10,12,20-pentamethyl-2,8,10,11,12,13-hexahydro-14H-5,3-(azenometheno)tripyrazolo[3,4-f:3′,4′-j:4″,3″-n][1,4]oxazacyclopentadecin-14-yl]propan-1-ol] | – | 52.8 | – | 57 | 204 | 3.16 | – | 25.3 | 12.2 |
| CCOc1nn(CCO)c2c1/C=C/c1n[nH]c3cnc(cc13)-c1c(cnn1C)OCCN(C)C2 [Ex. 104, 2-[(17E)-16-ethoxy-6,12-dimethyl-2,6,10,11,12,13-hexahydro-14H-5,3-(azenometheno)tripyrazolo[3,4-f:3′,4′-j:3″,4″-n][1,4]oxazacyclopentadecin-14-yl]ethan-1-ol] | 146 | 59 | 50.5 | – | 63.9 | 6.89 | 39.8 | 13.9 | 36.2 |

Other lines, results leading:

| IC50 [1] [nM] | IC50 (PC-9 cells) [nM] | IC50 [2] [nM] | IC50 (NCI-H1975 cells) [nM] | IC50 [3] [nM] | IC50 [4] [nM] | IC50 [5] [nM] | IC50 (HCC827 cells) [nM] | IC50 [6] [nM] | Structure (SMILES) |
| --- | --- | --- | --- | --- | --- | --- | --- | --- | --- |
| 12.5 | 1.02 | 1.29 | 0.93 | 0.67 | 0.06 | 0.81 | 0.39 | 0.59 | CCOc1nn(CCO)c2c1/C=C/c1n[nH]c3c(C)nc(cc13)-c1c(C)nn(C)c1O[C@H](C)[C@H]1CCCN1C2 [Ex. 178] |
| 10.2 | 14.6 | 3.03 | 7.92 | 4.75 | 1.37 | 9 | 2.18 | 3.41 | Cc1nn(C)c2c1/C=C/c1n[nH]c3c(C)nc(cc13)-c1c(C)nn(C)c1O[C@@H](C)CN(C(C)C)C2 [Ex. 106, (10S,17E)-6,8,10,14,16,20-hexamethyl-12-(propan-2-yl)-2,10,11,12,13,14-hexahydro-8H-5,3-(azenometheno)tripyrazolo[3,4-f:3′,4′-j:4″,3″-n][1,4]oxazacyclopentadecine] |
| – | 3.35 | – | 6.13 | 3.05 | 9.04 | – | 1.47 | 31.9 | C=CC(=O)N1Cc2c(c(OCC)nn2[C@@H](C)CO)/C=C/c2n[nH]c3cnc(cc23)-c2c(C)nn(C)c2O[C@@H](C)C1 [Ex. 115, 1-[(10S,17E)-16-ethoxy-14-[(2S)-1-hydroxypropan-2-yl]-6,8,10-trimethyl-2,8,10,11,13,14-hexahydro-12H-5,3-(azenometheno)tripyrazolo[3,4-f:3′,4′-j:4″,3″-n][1,4]oxazacyclopentadecin-12-yl]prop-2-en-1-one] |
